The record followed here is patent US20240002393A1, “SUBSTITUTED BENZO[f][l ,2,4JTRIAZOL0[4,3-a][l ,4J[…] GABA A GAMMA! POSITIVE ALLOSTERIC MODULATORS” (Hoffmann-La Roche Inc., priority 2020, published 2024).

In assay [1] the target is human GABAA α5β2γ1 receptor (Homo sapiens (Human), UniProt P31644+Q8N1C3). As to the kind of experiment: Radioligand binding assay, [3H]RO7239181 competition, γ1-containing GABAA subtypes. Particulars: HEK293F membranes, mean of two determinations. Here is the method:
The affinity of compounds at GABAA γ1 subunit-containing receptors was measured by competition for [^3H]RO7239181 (67.3 Ci/mmol; Roche) binding to membranes from HEK293F cells (ThermoFisher R79007) expressing human (transiently transfected) receptors of composition α5β2γ1, α2β2γ1, α1β2γ1. For better protein expression of the α2 subunit-containing receptors, the 28 amino acid long signal peptide (Met1 to Ala28) of the human GABAA α2 subunit was substituted by the 31 amino acid long signal peptide (Met1 to Ser31) of human GABAA α5 subunit.
(§1) Harvested pellets from HEK293F cells expressing the different GABAA receptor subtypes were resuspended in Mannitol Buffer pH 7.2-7.4 (Mannitol 0.29M, Triethylamine 10 mM, Acetic acid 10 mM, EDTA 1 mM plus protease inhibitors (20 tablets Complete, Roche Diagnostics Cat. No. 05 056 489 001 per liter)), washed two times and then resuspended at 1:10 to 1:15 dilution in the same buffer. Cell disruption was performed by stirring the suspension in a Parr vessel #4637 at 435 psi for 15 minutes, and then the suspensions were centrifuged at 1000×g for 15 minutes at 4° C. (Beckman Avanti J-HC; rotor JS)-4.2). The supernatant (S1) was transferred in a 21 Schott flask and the pellet (P1) was resuspended with Mannitol Buffer up to 175 ml. The resuspended pellet was transferred into a 250 ml Corning centrifugal beaker and centrifuged at 1500×g for 10 minutes at 4° C. (Beckman Avanti J-HC; rotor JS)-4.2). The supernatant (S1) was then transferred in the 21 Schott flask and the pellet was discarded. The supernatants (S1) were centrifuged in 500 ml Beckman polypropylene centrifugal beaker at 15,000×g for 30 minutes at 4° C. (Beckman Avanti J-20 XP; rotor JLA-10.500). The pellet (P2) was resuspended with Mannitol Buffer 1:1 and frozen at −80° C. The supernatant (S2) was centrifuged in 100 ml Beckman polypropylene centrifugal tubes at 48000×g for 50 minutes at […] (Beckman Avanti J-20 XP; rotor JA-18). The supernatant (S3) was discarded and the pellet (P3) was resuspended with 1:1 Mannitol Buffer. The P2 and P3 protein concentration was determined with the BIORAD Standard assay method with bovine serum albumin as standard and measured on the NANO-Drop 1000. The membrane suspension was aliquots (500 μl per tube) and stored at −80° C. until required.
(§2) Membrane homogenates were resuspended and polytronised (Polytron PT1200E Kinematica AG) in Potassium Phosphate 10 mM, KCl 100 mM binding buffer at pH 7.4 to a final assay concentration determined with a previous experiment.
Radioligand binding assays were carried out in a volume of 200 µL (96-well plates) which contained 100 μL of cell membranes, [^3H]RO7239181 at a concentration of 1.5 nM (α5β2γ1) or 20-30 nM (α1β2γ1, 2β2γ1) and the test compound in the range of [0.3-10000]×10^−9 M. Nonspecific binding was defined by 10×10^−6 (α5β2γ1) and 30×10^−6 M RO7235136 and typically represented less than 5% (α5β2γ1) and less than 20% (α1β2γ1, α2β2γ1) of the total binding. Assays were incubated to equilibrium for 1 hour at 4° C. and then, membranes were filtered onto unifilter (96-well white microplate with bonded GF/C filters preincubated 20-50 minutes in 0.3% Polyethylenimine) with a Filtermate 196 harvester (Packard BioScience) and washed 4 times with cold Potassium Phosphate 10 mM pH 7.4, KCl 100 mM binding buffer. After drying, filter-retained radioactivity was detected by liquid scintillation counting. K, values were calculated using Excel-Fit (Microsoft) and are the means of two determinations.
Representative test results, obtained by the above described assay measuring binding affinity to HEK293 cells expressing human (h) receptors, are shown in the Table 1.

The target in assay [2] is human GABAA α1β3γ2 receptor (Homo sapiens (Human), UniProt P14867+P18507). The experiment in a line: Radioligand binding assay, [3H]Flumazenil competition, γ2-containing GABAA subtypes. Particulars: HEK293F membranes, [3H]Flumazenil 1 nM, mean of two determinations; read-out: Ki h-GABAA α1β3γ2. How it is done:
The affinity of compounds at GABAA γ2 subunit-containing receptors was measured by competition for [^3H]Flumazenil (81.1 Ci/mmol; Roche) binding to HEK293F cells expressing human (transiently transfected) receptors of composition α1β3γ2.
Harvested pellets from HEK293F cells expressing the different GABAA γ2 receptor subtypes were resuspended in Mannitol Buffer pH 7.2-7.4 and processed as described above for the cells expressing the GABAA γ1 subunit-containing receptors.
Assays were incubated to equilibrium for 1 hour at 4° C. and harvested onto GF/C uni-filters (Packard) by filtration using a Packard harvester and washing with ice-cold wash buffer (50 mM Tris; pH 7.5). After drying, filter-retained radioactivity was detected by liquid scintillation counting. Ki values were calculated using Exel-Fit (Microsoft) and are the means of two determinations.

The target of assay [3] is human GABAA α1β2γ1 receptor (Homo sapiens (Human), UniProt P14867+Q8N1C3). The experiment in a line: Radioligand binding assay, [3H]RO7239181 competition, γ1-containing GABAA subtypes. Particulars: HEK293F membranes, [3H]RO7239181 20-30 nM, mean of two determinations. How it is done: (§3) The affinity of compounds at GABAA γ1 subunit-containing receptors was measured by competition for [^3H]RO7239181 (67.3 Ci/mmol; Roche) binding to membranes from HEK293F cells (ThermoFisher R79007) expressing human (transiently transfected) receptors of composition α5β2γ1, α2β2γ1, α1β2γ1.
as §1, §2
(§4) Assays were incubated to equilibrium for 1 hour at 4° C. and then, membranes were filtered onto unifilter (96-well white microplate with bonded GF/C filters preincubated 20-50 minutes in 0.3% Polyethylenimine) with a Filtermate 196 harvester (Packard BioScience) and washed 4 times with cold Potassium Phosphate 10 mM pH 7.4, KCl 100 mM binding buffer. After drying, filter-retained radioactivity was detected by liquid scintillation counting. K, values were calculated using Excel-Fit (Microsoft) and are the means of two determinations.

Assay [4] addresses human GABAA α2β2γ1 receptor (Homo sapiens (Human), UniProt P47869+Q8N1C3). The description is as above. Particulars: for Ki: HEK293F membranes, [3H]RO7239181 20-30 nM, mean of two determinations, read-out: Ki h-GABAA α2β2γ1; for γ2/γ1 Selectivity Ratio: Ki α1β3γ2 (nM)/Ki α2β2γ1 (nM); for LogSel: Log[Ki α1β3γ2 (nM)/Ki α2β2γ1 (nM)]. How it is done: as §3, §1, §2, §4

In general, Ki refers to the dissociation constant of the complex between target and ligand, obtained from inhibition or displacement. As for `C[C@@H]1N=C(c2c(F)cccc2F)c2c(ccc(Cl)c2Cl)-n2c(-c3cccnn3)nnc21` [Example 56, (4S)-7,8-dichloro-6-(2,6-difluorophenyl)-4-methyl-1-pyridazin-3-yl-4H-[1,2,4]triazolo[4,3-a][1,4]benzodiazepine], the Ki was determined as 0.8 nM in assay [1], 850 nM in assay [2], 3.8 nM in assay [3] and 4.6 nM in assay [4]. The “γ2/γ1 Selectivity Ratio” value in assay [4] is listed as 186.8. This compound came in with a LogSel in assay [4] of 2.27.
Take `C[C@@H]1N=C(c2ncccc2F)c2c(ccc(Cl)c2Cl)-n2c(-c3cccnn3)nnc21` [Example 63, (4S)-7,8-dichloro-6-(3-fluoro-2-pyridyl)-4-methyl-1-pyridazin-3-yl-4H-[1,2,4]triazolo[4,3-a][1,4]benzodiazepine]: the inhibition constant Ki stood at 5.6 nM in assay [1], 4080 nM in assay [2], 333 nM in assay [3] and 39.4 nM in assay [4]. For the same compound, in assay [4], the “γ2/γ1 Selectivity Ratio” value was 103.5. In assay [4], this compound displayed a LogSel of 2.02.
In the case of `C[C@@H]1N=C(c2c(F)cccc2F)c2c(ccc(Cl)c2Cl)-n2c1n[nH]c2=O` [Example 64, (4S)-7,8-dichloro-6-(2,6-difluorophenyl)-4-methyl-2,4-dihydro-[1,2,4]triazolo[4,3-a][1,4]benzodiazepin-1-one], the inhibitory constant (Ki) in assay [1] turned out to be 0.5 nM; in assay [2], 602 nM; in assay [3], 11.5 nM; in assay [4] it was 13.2 nM. Also, the “γ2/γ1 Selectivity Ratio” value in assay [4] was determined as 45.8. The LogSel in assay [4] was 1.66.
`C[C@@H]1N=C(c2ncccc2F)c2c(ccc(Cl)c2Cl)-n2c(-c3ccncn3)nnc21` [Example 66, (4S)-7,8-dichloro-6-(3-fluoro-2-pyridyl)-4-methyl-1-pyrimidin-4-yl-4H-[1,2,4]triazolo[4,3-a][1,4]benzodiazepine]: the inhibition constant (Ki) in assay [1] amounted to 8 nM; in assay [2] it was 3280 nM; in assay [3] it was 231 nM; in assay [4], 97.8 nM. The “γ2/γ1 Selectivity Ratio” value in assay [4] was determined as 33.5. In assay [4], the LogSel is on record as 1.53.
In the case of `C[C@@H]1N=C(c2ncccc2F)c2c(ccc(Cl)c2Cl)-n2c(-c3cnn(C)c3)nnc21` [Example 67, (4S)-7,8-dichloro-6-(3-fluoro-2-pyridyl)-4-methyl-1-(1-methylpyrazol-4-yl)-4H-[1,2,4]triazolo[4,3-a][1,4]benzodiazepine], the Ki was 3.2 nM in assay [1], 1420 nM in assay [2], 188 nM in assay [3] and 26.5 nM in assay [4]. For the same compound, the “γ2/γ1 Selectivity Ratio” value in assay [4] is on record as 53.5. This compound showed a LogSel in assay [4] of 1.73.
In the case of `C[C@@H]1N=C(c2ncccc2F)c2c(ccc(Cl)c2Cl)-n2c(C3CC3)nnc21` [Example 68, (4S)-7,8-dichloro-1-cyclopropyl-6-(3-fluoro-2-pyridyl)-4-methyl-4H-[1,2,4]triazolo[4,3-a][1,4]benzodiazepine], the Ki in assay [1] came out at 7 nM; in assay [2], 1060 nM; in assay [3], 359 nM; in assay [4], 38.8 nM. Further, the “γ2/γ1 Selectivity Ratio” value in assay [4] was 27.4. Further, in assay [4], the LogSel is 1.44.
With `C[C@@H]1N=C(c2c(F)cccc2F)c2c(ccc(Cl)c2Br)-n2c(-c3cccnn3)nnc21` [Example 73, (4S)-7-bromo-8-chloro-6-(2,6-difluorophenyl)-4-methyl-1-(pyridazin-3-yl)-4H-benzo[f][1,2,4]triazolo[4,3-a][1,4]diazepine], the Ki in assay [1] worked out at 2 nM; in assay [2], 768 nM; in assay [3] it was 23.5 nM; in assay [4], 8.8 nM. The “γ2/γ1 Selectivity Ratio” value in assay [4] is listed as 87.5. Besides, in assay [4], the LogSel is recorded as 1.94.
In the case of `C[C@@H]1N=C(c2c(F)cccc2F)c2c(ccc(Cl)c2Br)-n2c(-c3ccncn3)nnc21` [Example 74, (4S)-7-bromo-8-chloro-6-(2,6-difluorophenyl)-4-methyl-1-pyrimidin-4-yl-4H-[1,2,4]triazolo[4,3-a][1,4]benzodiazepine], the inhibition constant (Ki) is 2.6 nM in assay [1], 1870 nM in assay [2], 28.3 nM in assay [3] and 17.3 nM in assay [4]. Also, the “γ2/γ1 Selectivity Ratio” value in assay [4] is given as 107.6. This compound gave a LogSel in assay [4] of 2.03.
Regarding `Cc1nnc2n1-c1ccc(Br)c(Cl)c1C(c1c(F)cccc1F)=N[C@H]2C` [Example 75, (4S)-8-bromo-7-chloro-6-(2,6-difluorophenyl)-1,4-dimethyl-4H-[1,2,4]triazolo[4,3-a][1,4]benzodiazepine], the Ki in assay [1] amounted to 0.8 nM; in assay [2] it was 202 nM; in assay [3], 8.3 nM; in assay [4], 5.3 nM. Further, the “γ2/γ1 Selectivity Ratio” value in assay [4] is recorded as 38.0. Besides, in assay [4], the LogSel was 1.58.
With `C[C@@H]1N=C(c2c(F)cccc2F)c2c(ccc(Cl)c2Br)-n2c(-c3cnn(C)c3)nnc21` [Example 76, (4S)-7-bromo-8-chloro-6-(2,6-difluorophenyl)-4-methyl-1-(1-methylpyrazol-4-yl)-4H-[1,2,4]triazolo[4,3-a][1,4]benzodiazepine], the Ki in assay [1] amounted to 3.6 nM; in assay [2] it was 530 nM; in assay [3], 44.6 nM; in assay [4], 24.9 nM. In assay [4], the “γ2/γ1 Selectivity Ratio” value turned out to be 21.3. The same compound registered a LogSel in assay [4] of 1.33.
Consider `Cc1nnc2n1-c1ccc(Cl)c(Br)c1C(c1c(F)cccc1F)=N[C@H]2C` [Example 80, (4S)-7-bromo-8-chloro-6-(2,6-difluorophenyl)-1,4-dimethyl-4H-[1,2,4]triazolo[4,3-a][1,4]benzodiazepine], for which the inhibitory constant (Ki) in assay [1] was determined as 3 nM; in assay [2], 1070 nM; in assay [3], 42.6 nM; in assay [4] it was 23.6 nM. In addition, the “γ2/γ1 Selectivity Ratio” value in assay [4] turned out to be 45.3. The LogSel in assay [4] was found to be 1.66.
